Source: patent US7109338B2, “1,2-disubstituted 1,4-dihydro-4-oxoquinoline compounds” (priority 1999, dated 2006)
≈ marks a conversion by molar mass, not a printed value.

Experiments:
[1] = tested on: human rhinovirus type 1B (HRV 1B, B632); test: Anti-rhinovirus activity (MTT), HRV1B; format: cell-based; conditions: Human rhinovirus sp., HRV1B; HeLa (Ohio strain) cells, MTT method, 33° C.; read-out: IC50 HRV1B
[2] = Cytotoxicity (MTT, without virus), HeLa-S3; conditions: human, HeLa-S3 cells (uninfected)
[3] = tested on: echovirus type 11 (Echo 11, Gregory); test: In vitro anti-picornavirus activity (MTT), Echo 11; format: cell-based; conditions: Enterovirus B; HeLa-S3 cells, MTT method, 37° C.
[4] = Cytotoxicity (MTT, without virus), HeLa(Ohio); conditions: human, HeLa (Ohio strain) cells (uninfected)
[5] = tested on: HRV 89 (41617-Gallo); test: Anti-rhinovirus activity (MTT), HRV89; format: cell-based, human rhinovirus; conditions: Human rhinovirus sp., HRV89; HeLa (Ohio strain) cells, MTT method, 33° C.; read-out: IC50 HRV89
[6] = tested on: HRV 2 (HGP); test: Anti-rhinovirus activity (MTT), HRV2; format: cell-based, human rhinovirus; conditions: Human rhinovirus sp., HRV2; HeLa (Ohio strain) cells, MTT method, 33° C.; read-out: IC50 HRV2
[7] = tested on: Poliovirus type 1 (Polio 1, Sabin); test: microbe, parasite or virus in culture; format: cell-based; conditions: Enterovirus C, HeLa S3, read-out: IC50 Polio 1
[8] = tested on: HRV14 (1059); test: Anti-rhinovirus activity (MTT), HRV14; format: cell-based, human rhinovirus; conditions: Human rhinovirus sp., HRV14; HeLa (Ohio strain) cells, MTT method, 33° C.; read-out: IC50 HRV 14
[9] = tested on: HRV1A (E28); test: Anti-rhinovirus activity (MTT), HRV1A; format: cell-based, human rhinovirus; conditions: Human rhinovirus sp., HRV1A, HeLa, read-out: IC50 HRV 1A
[10] = tested on: coxsackievirus type A7 (CA7); test: In vitro anti-picornavirus activity (MTT), CA7; format: cell-based; conditions: Coxsackievirus; HeLa-S3 cells, MTT method, 37° C.
[11] = tested on: coxsackievirus type B4 (CB4,JVB); test: In vitro anti-picornavirus activity (MTT), CB4; format: cell-based; conditions: Coxsackievirus; HeLa cells, MTT method, 37° C.
[12] = Cytotoxicity (MTT, without virus), HeLa; conditions: human, HeLa cells (uninfected)

| SMILES | IC50 [1] [µg/mL] | CC50 at 4 days [2] [µg/mL] | IC50 [3] [µg/mL] | CC50 at 4 days [4] [µg/mL] | IC50 [5] [µg/mL] | IC50 [6] [µg/mL] | IC50 [7] [µg/mL] | melting point [°C] | IC50 [8] [µg/mL] | IC50 [9] [µg/mL] | IC50 [10] [µg/mL] | IC50 [11] [µg/mL] | CC50 at 4 days [12] [µg/mL] |
| --- | --- | --- | --- | --- | --- | --- | --- | --- | --- | --- | --- | --- | --- |
| CCn1c2c(c(=O)c3cc(C(C)C)ccc31)Cc1ccsc1-2 [Compound D50, 10-Ethyl-7-isopropyl-5,10-dihydro-4H-thieno[3′,2′:4,5]cyclopenta[1,2-b]quinolin-5-one] | 0.25 (≈ 0.808 µM) | > 10 | 0.27 (≈ 0.873 µM) | > 10 | 0.41 (≈ 1.32 µM) | 0.2 (≈ 0.646 µM) | 0.64 (≈ 2.07 µM) | 168 to 169 | 1.3 (≈ 4.2 µM) | 2.2 (≈ 7.11 µM) | 1.9 (≈ 6.14 µM) | 0.82 (≈ 2.65 µM) | 7.8 (≈ 25.2 µM) |
| CCn1c2c(c(=O)c3cc(C(C)C)ccc31)Cc1cc(C)sc1-2 [Compound D51, 10-Ethyl-7-isopropyl-2-methyl-5,10-dihydro-4H-thieno[3′,2′:4,5]cyclopenta[1,2-b]quinolin-5-one] | 0.59 (≈ 1.82 µM) | > 5 | 0.21 (≈ 0.649 µM) | > 5 | 0.35 (≈ 1.08 µM) | 0.27 (≈ 0.835 µM) | 0.28 (≈ 0.866 µM) |  | 0.82 (≈ 2.54 µM) | 3.1 (≈ 9.58 µM) | 1.1 (≈ 3.4 µM) | 0.72 (≈ 2.23 µM) | > 5 |
| CCn1c(-c2ccccc2)c(C)c(=O)c2cc(C(C)C)ccc21 [Compound A37, 1-Ethyl-2-phenyl-3-methyl-6-isopropyl-1,4-dihydro-4-oxoquinoline] | 1 (≈ 3.27 µM) | 12 (≈ 39.3 µM) | 0.91 (≈ 2.98 µM) | 11 (≈ 36 µM) | 0.54 (≈ 1.77 µM) | 0.83 (≈ 2.72 µM) | 1.1 (≈ 3.6 µM) | 159 to 165 |  |  | 3.8 (≈ 12.4 µM) | 6.7 (≈ 21.9 µM) | 11 (≈ 36 µM) |
| CCn1c2c(c(=O)c3cc(C(C)C)ccc31)Cc1ccccc1-2 [Compound B2, 5-Ethyl-8-isopropyl-5,10-dihydro-11H-indeno[1,2-b]quinolin-10-one] | 0.54 (≈ 1.78 µM) | > 10 | 0.19 (≈ 0.626 µM) | > 10 | 0.48 (≈ 1.58 µM) | 0.15 (≈ 0.494 µM) | 0.58 (≈ 1.91 µM) |  | 0.65 (≈ 2.14 µM) | 5 (≈ 16.5 µM) | 3.1 (≈ 10.2 µM) | 0.97 (≈ 3.2 µM) | > 10 |
